Results taken from ChEMBL document CHEMBL1201862, “PubChem BioAssay data set” (2004).
Calls of active or inactive are those of the source.

What was measured:
[1] = target: T1, Sentrin-specific protease 6 (Homo sapiens, UniProt Q9GZR1); type: functional;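 further: Luminescence-based dose-response confirmatory assay of SENP6 inhibition, following up an ultra-high-throughput screen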
T1 sequence (Q9GZR1 whole entry): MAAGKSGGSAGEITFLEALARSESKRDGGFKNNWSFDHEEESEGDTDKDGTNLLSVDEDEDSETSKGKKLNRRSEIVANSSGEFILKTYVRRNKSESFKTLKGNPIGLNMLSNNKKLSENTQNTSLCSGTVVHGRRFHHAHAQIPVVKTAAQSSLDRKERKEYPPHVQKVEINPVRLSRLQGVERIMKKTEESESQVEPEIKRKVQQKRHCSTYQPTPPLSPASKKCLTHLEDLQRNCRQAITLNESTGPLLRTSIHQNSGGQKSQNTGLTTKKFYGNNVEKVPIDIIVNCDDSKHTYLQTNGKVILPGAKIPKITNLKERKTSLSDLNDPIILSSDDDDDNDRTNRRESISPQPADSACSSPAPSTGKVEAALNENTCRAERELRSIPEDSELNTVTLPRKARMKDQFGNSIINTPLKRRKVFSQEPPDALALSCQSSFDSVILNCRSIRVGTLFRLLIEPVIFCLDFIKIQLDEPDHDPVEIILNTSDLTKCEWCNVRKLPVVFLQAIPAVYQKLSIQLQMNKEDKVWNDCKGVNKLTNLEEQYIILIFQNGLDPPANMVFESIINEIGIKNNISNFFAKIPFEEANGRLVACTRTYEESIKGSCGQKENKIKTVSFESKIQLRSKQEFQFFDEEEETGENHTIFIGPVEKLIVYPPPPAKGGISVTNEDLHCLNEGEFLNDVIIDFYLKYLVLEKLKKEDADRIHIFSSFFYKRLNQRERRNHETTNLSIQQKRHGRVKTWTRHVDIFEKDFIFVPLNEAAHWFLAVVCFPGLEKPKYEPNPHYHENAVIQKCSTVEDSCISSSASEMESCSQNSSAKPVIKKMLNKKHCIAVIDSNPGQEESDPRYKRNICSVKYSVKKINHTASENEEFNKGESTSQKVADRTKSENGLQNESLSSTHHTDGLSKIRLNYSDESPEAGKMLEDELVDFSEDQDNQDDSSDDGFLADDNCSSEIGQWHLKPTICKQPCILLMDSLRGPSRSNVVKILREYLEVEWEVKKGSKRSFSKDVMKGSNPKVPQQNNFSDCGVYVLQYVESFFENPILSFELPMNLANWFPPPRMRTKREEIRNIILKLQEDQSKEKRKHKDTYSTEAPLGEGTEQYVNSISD

[2] = target: Tyrosyl-DNA phosphodiesterase 2 (Homo sapiens, UniProt O95551); assay: potency against TDP2 phosphodiesterase activity – biochemical, epi absorbance, IC50, dose response (AID 743297)
Tyrosyl-DNA phosphodiesterase 2, sequence (O95551 whole entry): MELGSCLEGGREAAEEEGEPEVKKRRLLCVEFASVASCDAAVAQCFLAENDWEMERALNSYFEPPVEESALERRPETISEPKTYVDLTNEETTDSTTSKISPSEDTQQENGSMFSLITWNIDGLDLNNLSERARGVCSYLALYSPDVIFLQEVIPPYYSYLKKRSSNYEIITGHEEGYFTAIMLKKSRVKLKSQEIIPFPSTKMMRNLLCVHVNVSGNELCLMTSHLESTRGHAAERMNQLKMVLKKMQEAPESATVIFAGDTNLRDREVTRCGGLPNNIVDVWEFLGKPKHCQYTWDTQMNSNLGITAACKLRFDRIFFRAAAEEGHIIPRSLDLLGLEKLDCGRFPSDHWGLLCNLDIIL

[3] = Counterscreen for AddAB inhibitors: absorbance-based bacterial cell-based high throughput dose response assay for inhibitors of bacterial viability. [Related pubchem assays (depositor defined):AID435030, AID449728, AID449731, AID488942, AID488955, AID488956]; type: functional
cells [4] = type: functional, cell-based
[5] = NIH-3T3 fibroblast cytotoxicity, dose response, cytotoxicity control, cell-based, fluorescence, Alamar Blue, secondary assay (AID 2327); type: functional;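 further: NIH-3T3 mouse fibroblasts cultured with fluconazole at 8 µg/mL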
INS1 = assay: INS-1E survival protection against cytokine death – cell-based, luminescence, retest, dose response (AID 449756); type: functional; conditions: Rattus norvegicus;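 further: cell death triggered by IL-1 beta plus TNF-alpha plus IFN-gamma mixture; protective hits raise ATP signal compared with cytokine alone wells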
cells [6] = type: functional, cell-based; remark: listed apart in the source
[7] = fluconazole-exposed Candida albicans growth modulators – fluorescence, retest, confirmation (AID 2467); type: functional, cell-based

SMILES	IC50 [1]	IC50 [2]	IC50 [3]	EC50 (cells [4])	EC50 [5]	AC50 (INS1)	EC50 (cells [6])	EC50 [7]
CC(C)n1cnc2c(NCc3ccccc3)cc(OCC3CCN(C)CC3)cc21	3.95 µM (active)							
NS(=O)(=O)c1ccc(NC2=CC(=O)C(=O)c3ccccc32)cc1	2.89 µM (active)	5.59 µM (active)						
CC(C)N(C(=O)Nc1ccc2nsnc2c1)C(C)C	2.39 µM (active)	8.96 µM (active)						
O=C(N/N=C/c1ccc(O)cc1O)c1ccc(CN2C(=O)c3cccc4cccc2c34)cc1			> 119 µM (inactive)	31 µM (active)	4.96 µM (active)	0.768 µM (active)	> 350 µM (not active)	0.384 µM (active)
CCC(=O)NC(c1ccccc1OC)c1ccc2cccnc2c1O (configuration not stated)			> 119 µM (inactive)	7.23 µM (active)	26.6 µM (inconclusive)	1.17 µM (active)	> 350 µM (not active)	1.48 µM (active)
